Results on one compound are retold here after article PMC11327210, “A first-in-human phase I trial of daily oral zelenirstat, a N-myristoyltransferase inhibitor, in patients with advanced solid tumors and relapsed/refractory B-cell lymphomas” (Investigational New Drugs, 2024).

Details of data set [1]: method as in Pacylex, data on file. As to conditions: preclinical models; ref Pacylex, data on file; cited from earlier work.
Data set [2] deals with advanced solid tumors and relapsed/refractory (R/R) B-cell lymphomas. The data set is described as follows: Anticancer activity in phase I patients (RECIST 1.1 / Lugano, Kaplan-Meier). Format: in vivo, human. As to conditions: for No. of patients with best response SD: evaluable patients n = 24. Here is the method: Tumor response assessments using CT imaging were performed every two cycles. RECIST 1.1 [11] or the Lugano Response Criteria for Lymphoma was used to determine tumor response and disease progression. For B-cell NHL patients with PET-CT at baseline, PET-CT was repeated after the sixth cycle to confirm complete response or disease progression. Patient archival specimens and blood samples were submitted for exploratory molecular analyses. Descriptive statistics were used for demographic, safety, and efficacy data. Categorical data were summarized using frequency counts and percentages. Time-to-event variables were analyzed by Kaplan-Meier methods. Weighted trajectory analysis for health outcomes used the Chauhan methodology.

The test system of data set [3] is cultured human cancer cells. The arrangement: method as in PMID 33093447. To be noted: wide variety of cultured human cancer cells; cited from earlier work.
The test system of data set [4] is ADP-ribosylation factor 6 (ARF6). The arrangement: method as in Pacylex, data on file. To be noted: cultured colon cancer cells; ref Pacylex, data on file; cited from earlier work.
In data set [5] the test system is rats. As to conditions: rat, in vivo; cited from earlier work.
In data set [6] the test system is CYP3A4. More on the design: method as in Pacylex, data on file. As to conditions: preclinical models; ref Pacylex, data on file; cited from earlier work.
For data set [7], the system named is cell line derived xenografts from lung carcinomas. More on the design: method as in Pacylex Inc., data on file. To be noted: mice-bearing established human tumor xenografts, ref Pacylex Inc., data on file; cited from earlier work. Background: A xenograft is tissue or cells of one species grown in another, often human tumour cells in immunodeficient mice.
Setting [8] is: MTD cohort 210 mg daily (n = 7) vs lower dose cohorts (n = 17).

SMILES strings stand for the structures.

As for `Cc1c(NS(=O)(=O)c2c(Cl)cc(-c3ccnc(N4CCNCC4)c3)cc2Cl)c(CC(C)C)nn1C` [zelenirstat], in data set [1], the oral bioavailability result is listed as “high oral bioavailability”. Moreover, the “Overall Survival (Kaplan-Meier)” value in data set [2] (setting [8]) is “statistically significantly longer overall survival”. Also, the “Progression-Free Survival (Kaplan-Meier)” value in data set [2] (setting [8]) is on record as “statistically significantly longer PFS”. The objective responses entry in data set [2] (all dose cohorts) was “No objective responses”. Moreover, the “No. of patients with best response SD” value in data set [2] (dose level 2: 40 mg, pancreatic adenocarcinoma) was determined as 1; in data set [2] (dose level 5: 140 mg, CRC) it was 1; in data set [2] (dose level 6: 210 mg, CRC (2), ovarian (2), appendiceal carcinoma), 5; in data set [2] (dose level 7: 280 mg, after DLT modified to 210 mg daily, bladder), 1. For the same compound, in data set [2] (eight of 29 patients, all dose cohorts), the “Stable disease as best response, patients” value came to 28%. For the same compound, in data set [2] (one patient, metastatic colon adenocarcinoma, 210 mg), the “reduction in serum carcinoembryonic antigen (CEA) level” value is reported as 48%. Also, in data set [2] (one patient, metastatic colon adenocarcinoma, 210 mg, SD, continuing), the duration on zelenirstat is ≥ 420 days. Also, in data set [2] (one patient, metastatic colon adenocarcinoma, 210 mg, ongoing), the “reduction in sum of longest dimensions of the target lesions” value was 13%. Also, the “reduction in cancer antigen 125 (CA125)” value in data set [2] (one patient, refractory ovarian cancer, 210 mg) was 20%. In data set [3], the “effect on cultured human cancer cells” value is on record as “cytotoxic or cytostatic”. Moreover, the “myristoylation of ARF6” value in data set [4] is given as “inhibits the myristoylation”. Moreover, in data set [5], the “toxicities in formal toxicologic evaluation” value was “acute gastrointestinal and hematologic toxicities”. The metabolism entry in data set [6] is listed as “metabolized in the liver primarily by CYP3A4”. Further, in data set [7], the xenograft tumor response entry is “tumor growth inhibition”.
